From patent publication US20240376120A1, “CAMPTOTHECIN COMPOUND, PREPARATION METHOD THEREFOR AND USE THEREOF” (priority 2021, published 2024)
Like-named read-outs stand apart in the source and are kept apart here.

Experiments:
[1] = test system: MCF-7 cells (human breast cancer cells); experiment: MCF-7 cell proliferation inhibitory assay (CellTiter-Glo); format: cell-based; conditions: Homo sapiens
Procedure: • 1). […] Resuspend an appropriate amount of cell suspension to 4000 cells/100 μL according to the count, mixed well and then put the corresponding number of cells into a 96-well plate by pipette. • 3). Each hole of the edge was sealed with 100 μL DPBS and put into an incubator for culture. • 4). Day 1 drug addition: Prepare the storage solution of the compound to be tested 1 hour in advance. 24 h after plating, the culture medium was gradiently diluted to a concentration twice the final concentration of each group. Take out the plated cells from the incubator and add 100 μL of the corresponding 2-fold concentration medium to each well by pipette.
Day 1 detected: Take out the plate to be tested and an appropriate amount of CTG in advance and rewarm it at room temperature in the dark. 50 μL of CTG was added to each well at 24 h. Shake with the oscillator for 5 minutes, and after balancing in the dark for 5 minutes, detect the luminescence value with a microplate reader; The mixture was shaken for 5 min, and after equilibration in the dark for 5 min, the luminescence value was detected with ELISA. • 6). Day 4 detection: Take an appropriate amount of CTG 1 h in advance and rewarm it at room temperature in the dark. At the same time, take out the plate to be tested from the incubator and leave it to equilibrate at room temperature for 30 minutes; 72 h after adding the drug, 100 μL of culture medium was sucked out with pipette carefully from each cell well, and 50 μL of CTG was added. The mixture was shaken for 5 min, and after equilibration in the dark for 5 min, the luminescence value was detected with ELISA analyzer. • 7). Data analysis and processed.
Collect data and convert it into survival rate: Inhibition rate (%)=(100−(OD value of compound-OD value on the first day)/(OD value of control well-OD value on the first day))×100%
(§1) Input the compound into graphpad prism to obtain the corresponding IC50 value.

[2] = test system: MDA-MB-231 cells (human breast cancer cells); experiment: MDA-MB-231 cell proliferation inhibitory assay (CellTiter-Glo); format: cell-based; conditions: Homo sapiens
Procedure: (§2) • 1). […] Resuspend an appropriate amount of cell suspension to 3000 cells/100 μL according to the count, mixed well and then put the corresponding number of cells into a 96-well plate by pipette. • 3). Each hole of the edge was sealed with 100 μL DPBS and put into an incubator for culture. • 4). Day 1 drug addition: Prepare the storage solution of the compound to be tested 1 hour in advance. 24 h after plating, the culture medium was gradiently diluted to a concentration twice the final concentration of each group. Take out the plated cells from the incubator and add 100 μL of the corresponding 2-fold concentration medium to each well by pipette. • 5). Day 1 detected: Take out an appropriate amount of CTG 1 h in advance and the plate was allowed to equilibrate at room temperature for 30 min. 100 μL of CTG was added to each well and shaken for 5 mins, and then standed in the dark for 5 mins, the luminescence value was detected by ELISA. • 6). Day 4 detection: Take an appropriate amount of CTG 1 h in advance and rewarm it at room temperature in the dark. At the same time, take out the plate to be tested from the incubator and leave it to equilibrate at room temperature for 30 minutes; 72 h after adding the drug, 100 μL of culture medium was sucked out with pipette carefully from each cell well, and 100 μL of CTG was added. The mixture was shaken for 5 min, and after equilibration in the dark for 5 min, the luminescence value was detected with ELISA. • 7). Analyze data and write detailed experimental records.
as §1

[3] = test system: MDA-MB-435s cells (human melanoma cells); experiment: MDA-MB-435s cell proliferation inhibitory assay (CellTiter-Glo); format: cell-based; conditions: Homo sapiens
Procedure: as §2
Collect data and convert it into survival rate: Inhibition rate (%)=(100−(OD value of compound−OD value on the first day)/(OD value of control well-OD value on the first day))×100%
as §1

in vitro = conditions: human, Caco-2
Procedure: Day 0 plated: After digesting the target cells in the logarithmic growth phase, make a single cell suspension and count. • 2). Took out the corresponding number of transwell chambers and placed them in a 24-well plate, added 200 μL PBS to the upper chamber, incubated for 10 mins, and removed the PBS from the upper chamber by pipette. • 3). According to the count, took an appropriate amount of cell suspension and resuspended it to 5000 cells/200 μL, mixed well and added it to the upper chamber of the transwell, and added 600 μL of complete culture medium to the lower chamber. • 4). medium exchanged on DAY1: The upper chamber and the lower chamber were exchanged with complete culture medium containing 0.1 mg/mL ascorbic acid for 9 days continuously, and the resistance value of membrane expansion was measured. […] Collected the liquid in the upper chamber and the lower chamber for detection. • 7). Calculated Papp according to the formula “Papp=dQ/(dt×A×C0)”. dQ/dt was the transport amount of drugs per unit time, which was the slope of the linear regression of cumulative drug release amount Q versus time t. A was the bottom area of the Transwell orifice plate membrane, and the bottom area was 0.33 cm^2 of 24-well plate in this experiment. Co was the initial concentration of drugs in the upper chamber (μg mL-1).

[4] = MCF7, MCF-7 cells, 72 h after adding the drug, Table 1, read-out: Proliferation inhibition IC50
[5] = MDA-MB-231 cells, 72 h after adding the drug, Table 2, read-out: Proliferation inhibition IC50
[6] = MDA-MB-435s cells, 72 h after adding the drug, Table 3, read-out: Proliferation inhibition IC50
[7] = MCF7, 72 h, read-out: Proliferation inhibition IC50
[8] = MDA-MB-231, 72 h, read-out: Proliferation inhibition IC50
[9] = MDA-MB-435S, 72 h, read-out: Proliferation inhibition IC50

Structure (SMILES) | IC50 [1, 7] [nM] | IC50 [2, 8] [nM] | IC50 [3, 9] [nM] | also measured
CC[C@@]1(O)C(=O)OCc2c1cc1n(c2=O)Cc2c-1nc1cc(F)c(C)cc1c2CN [Compound A, reference compound] |  |  |  | IC50 [1, 4]: 15.3 nM; IC50 ([1]; MCF7, MCF-7 cells, comparative Table 4, read-out: MCF-7 Proliferation inhibition IC50): 15.3 nM; IC50 [2, 5]: 260 nM; IC50 ([2]; MDA-MB-231 cells, comparative Table 4, read-out: MDA-MB-231 Proliferation inhibition IC50): 260 nM; IC50 [3, 6]: 21.4 nM; IC50 ([3]; MDA-MB-435s cells, comparative Table 4, read-out: MDA-MB-435s Proliferation inhibition IC50): 21.4 nM; Papp A→B at 180 min, 100 μg/mL (in vitro): 68.8 ×10⁻⁶ cm/s
CC[C@@]1(O)C(=O)OCc2c1cc1n(c2=O)Cc2c-1nc1cc(F)c(C)cc1c2CO [Example 12b] | 16.5 | 20.2 | 3.2 | IC50 ([1]; MCF7, read-out: MCF-7 Proliferation inhibition IC50): 16.5 nM; IC50 ([2]; MDA-MB-231, read-out: MDA-MB-231 Proliferation inhibition IC50): 20.2 nM; IC50 ([3]; MDA-MB-435S, read-out: MDA-MB-435s Proliferation inhibition IC50): 3.2 nM; Papp A→B at 180 min, 100 μg/mL (in vitro): 49.3 ×10⁻⁶ cm/s
CC[C@@]1(O)C(=O)OCc2c1cc1n(c2=O)Cc2c-1nc1cc(F)c(OC)cc1c2[C@H](C)N [Example 30a] | 6.3 | 11.6 | 3.3 | 
CC[C@@]1(O)C(=O)OCc2c1cc1n(c2=O)Cc2c-1nc1cc(F)c(OC)cc1c2[C@@H](C)N [Example 30b] | 3.8 | 25 | 0.9 | 
CC[C@@]1(O)C(=O)OCc2c1cc1n(c2=O)Cc2c-1nc1cc(F)c(OC)cc1c2[C@H](C)O [Example 30c] | 8.1 | 12.2 | 3.8 | 
CC[C@@]1(O)C(=O)OCc2c1cc1n(c2=O)Cc2c-1nc1cc(F)c(OC)cc1c2[C@@H](C)O [Example 30d] | 4.1 | 28.1 | 1.2 | 
CC[C@@]1(O)C(=O)OCc2c1cc1n(c2=O)Cc2c-1nc1ccc(OC)cc1c2[C@H](C)N [Example 31a] | 8.2 | 15.1 | 3.8 | 
CC[C@@]1(O)C(=O)OCc2c1cc1n(c2=O)Cc2c-1nc1ccc(OC)cc1c2[C@@H](C)N [Example 31b] | 4.1 | 9.2 | 1 | 
CC[C@@]1(O)C(=O)OCc2c1cc1n(c2=O)Cc2c-1nc1ccc(OC)cc1c2[C@H](C)O [Example 31c] | 10.2 | 18.3 | 5.8 | 
CC[C@@]1(O)C(=O)OCc2c1cc1n(c2=O)Cc2c-1nc1ccc(OC)cc1c2[C@@H](C)O [Example 31d] | 8.1 | 8.3 | 2.3 | 
CC[C@@]1(O)C(=O)OCc2c1cc1n(c2=O)Cc2c-1nc1ccc(C(F)F)cc1c2[C@H](C)N [Example 32a] | 7.5 | 16.7 | 3.37 | 
CC[C@@]1(O)C(=O)OCc2c1cc1n(c2=O)Cc2c-1nc1ccc(C(F)F)cc1c2[C@@H](C)N [Example 32b] | 5.5 | 20.2 | 1.85 | 
CC[C@@]1(O)C(=O)OCc2c1cc1n(c2=O)Cc2c-1nc1cc(F)c(F)cc1c2[C@H](C)N [Example 33a] | 6.5 | 10.9 | 2.36 | 
CC[C@@]1(O)C(=O)OCc2c1cc1n(c2=O)Cc2c-1nc1cc(F)c(F)cc1c2[C@@H](C)N [Example 33b] | 8.5 | 24.3 | 0.85 | 
CC[C@@]1(O)C(=O)OCc2c1cc1n(c2=O)Cc2c-1nc1cc(F)c(C(F)(F)F)cc1c2[C@H](C)N [Example 34a] | 9.6 | 11.6 | 4.37 | 
CC[C@@]1(O)C(=O)OCc2c1cc1n(c2=O)Cc2c-1nc1cc(F)c(C(F)(F)F)cc1c2[C@@H](C)N [Example 34b] | 4.2 | 8.8 | 2.85 | 
CC[C@@]1(O)C(=O)OCc2c1cc1n(c2=O)Cc2c-1nc1cc3c(cc1c2[C@H](C)N)OCO3 [Example 35a] | 10.3 | 20.6 | 3.33 | 

Structure (SMILES) | IC50 [1, 7] [nM] | IC50 [2, 8] [nM] | IC50 [3, 9] [nM] | also measured
CC[C@@]1(O)C(=O)OCc2c1cc1n(c2=O)Cc2c-1nc1cc3c(cc1c2[C@@H](C)N)OCO3 [Example 35b] | 6.2 | 7.1 | 1.15 | 
CC[C@@]1(O)C(=O)OCc2c1cc1n(c2=O)Cc2c-1nc1cc3c(cc1c2[C@H](C)N)OCCO3 [Example 36a] | 15.2 | 26.3 | 6.33 | 
CC[C@@]1(O)C(=O)OCc2c1cc1n(c2=O)Cc2c-1nc1cc3c(cc1c2[C@@H](C)N)OCCO3 [Example 36b] | 8.3 | 15.4 | 3.15 | 
CC[C@@]1(O)C(=O)OCc2c1cc1n(c2=O)Cc2c-1nc1cc(F)c(C)cc1c2C1CNC1 [Example 37] | 5.1 | 90.8 | 2.33 | 
CC[C@@]1(O)C(=O)OCc2c1cc1n(c2=O)Cc2c-1nc1cc(F)c(C)cc1c2[C@@H]1CCN1 [Example 38a] | 5.6 | 16.6 | 1.12 | 
CC[C@@]1(O)C(=O)OCc2c1cc1n(c2=O)Cc2c-1nc1cc(F)c(C)cc1c2[C@H]1CCN1 [Example 38b] | 2 | 6.2 | 0.65 | 
CC[C@@]1(O)C(=O)OCc2c1cc1n(c2=O)Cc2c-1nc1cc(F)c(C)cc1c2[C@@H](N)CO [Example 39a] | 9.8 | 25.9 | 2.12 | 
CC[C@@]1(O)C(=O)OCc2c1cc1n(c2=O)Cc2c-1nc1cc(F)c(C)cc1c2[C@H](N)CO [Example 39b] | 4.6 | 9.1 | 1.65 | 
CC[C@@]1(O)C(=O)OCc2c1cc1n(c2=O)Cc2c-1nc1cc(F)c(C)cc1c2[C@@H](N)C(F)(F)F [Example 40a] | 6.6 | 50 | 4.12 | 
CC[C@@]1(O)C(=O)OCc2c1cc1n(c2=O)Cc2c-1nc1cc(F)c(C)cc1c2[C@H](N)C(F)(F)F [Example 40b] | 3.5 | 25.7 | 2.65 | 
CC[C@@]1(O)C(=O)OCc2c1cc1n(c2=O)Cc2c-1nc1cc(F)c(C)cc1c2[C@H](C)N1CCNCC1 [Example 41a] | 28.6 | 100 | 5.12 | 
CC[C@@]1(O)C(=O)OCc2c1cc1n(c2=O)Cc2c-1nc1cc(F)c(C)cc1c2[C@@H](C)N1CCNCC1 [Example 41b] | 19.6 | 30.5 | 3.86 | 
CC[C@@]1(O)C(=O)OCc2c1cc1n(c2=O)Cc2c-1nc1cc(F)c(C)cc1c2[C@H](C)N1CCN(C)CC1 [Example 42a] | 14.6 | 125 | 3.21 | 
CC[C@@]1(O)C(=O)OCc2c1cc1n(c2=O)Cc2c-1nc1cc(F)c(C)cc1c2[C@@H](C)N1CCN(C)CC1 [Example 42b] | 6.6 | 75.6 | 2.56 | 
[2H]C([2H])([2H])[C@H](N)c1c2c(nc3cc(F)c(C)cc13)-c1cc3c(c(=O)n1C2)COC(=O)[C@]3(O)CC [Example 43a] |  |  |  | IC50 [1, 4]: 5.1 nM; IC50 [2, 5]: 16.8 nM; IC50 [3, 6]: 3.31 nM
[2H]C([2H])([2H])[C@@H](N)c1c2c(nc3cc(F)c(C)cc13)-c1cc3c(c(=O)n1C2)COC(=O)[C@]3(O)CC [Example 43b] |  |  |  | IC50 [1, 4]: 2.7 nM; IC50 [2, 5]: 8 nM; IC50 [3, 6]: 0.65 nM
